Read-outs that look alike come from different tables or passages of the source.
Conditions: DCM

For `COC(=O)c1ccc2c(c1)S(=O)(=O)Nc1cc(C#N)c(Cl)cc1N1CCCC[C@@H]1CCCO2`, which ring closure, isolated yield (from COC(=O)c1ccc(O)c(S(=O)(=O)Nc2cc(C#N)c(Cl)cc2N2CCCC[C@@H]2CCCO)c1, ether bond, 12-membered ring, PPh3/DIAD, 43.7 mM, 1.0 h) is on record?
The ring closure, isolated yield was 22%.

With `COC(=O)c1ccc2c(c1)S(=O)(=O)Nc1cc(C#N)c(Cl)cc1N1CCCC[C@H]1CC=CCO2` as the molecule, how does the ring closure, isolated yield (from C=CCOc1ccc(C(=O)OC)cc1S(=O)(=O)Nc1cc(C#N)c(Cl)cc1N1CCCC[C@H]1CC=C, rcm bond, 13-membered ring, Hoveyda-Grubbs II, 20.1 mM, 16.0 h) read?
Its ring closure, isolated yield is 81%.

Which ring closure, isolated yield (from COC(=O)c1ccc(O)c(S(=O)(=O)Nc2cc(C#N)c(Cl)cc2N2CCCC[C@H]2CCCO)c1, ether bond, 12-membered ring, PPh3/DIAD, 47.1 mM, 1.0 h) does the source give for `COC(=O)c1ccc2c(c1)S(=O)(=O)Nc1cc(C#N)c(Cl)cc1N1CCCC[C@H]1CCCO2` here?
The ring closure, isolated yield was 23%.

Which ring closure, isolated yield (from COC(=O)c1ccc(O)c(S(=O)(=O)Nc2cc(C#N)c(F)cc2N2CCCC[C@H]2CCCCO)c1, ether bond, 13-membered ring, PPh3/DIAD, 31.7 mM, 1.0 h) does the source give for `COC(=O)c1ccc2c(c1)S(=O)(=O)Nc1cc(C#N)c(F)cc1N1CCCC[C@H]1CCCCO2` here?
Its ring closure, isolated yield is 88%.

For “(E)-20-tert-butyl 17-methyl 2-(trifluoromethyl)-6,7,8,9,9a,10-hexahydrodibenzo[b,f]pyrido[1,2-h][1,4,5,8]oxathiadiazacyclotridecine-17,20(13H)-dicarboxylate 19,19-dioxide”, which ring closure, isolated yield (rcm bond, 13-membered ring, Hoveyda-Grubbs II (two portions), 42.3 mM, 35.0 °C) is on record?
Its ring closure, isolated yield is 33%.

Which ring closure, isolated yield (rcm bond, 13-membered ring, Hoveyda-Grubbs II (5 mol%), 50.2 mM) does the source give for “methyl (E)-2-cyano-7,8,9,9a,10,13-hexahydro-6H, 20H-dibenzo[b,f]pyrido[1,2-h][1]oxa[4]thia[5,8]diazacyclotridecine-17-carboxylate 19,19-dioxide” here?
The ring closure, isolated yield was 66%.
